Experimental data reported in ChEMBL document CHEMBL3585330, “Anticancer activity of koningic acid and semisynthetic derivatives” (Bioorg Med Chem, 2015).
Activity calls are given as the source filed them. No cut-off for these calls is given here.

Experiments:
[1] = Antiproliferative activity against human NAMALWA cells assessed as inhibition of cell proliferation incubated for 72 hrs by conventional ATP quantification method; assay type: functional, cell-based; conditions: NAMALVA
[2] = Antiproliferative activity against human WM266.4 cells assessed as inhibition of cell proliferation incubated for 72 hrs by conventional ATP quantification method; assay type: functional, cell-based; conditions: WM 266-4, 72 h
[3] = test system: A-375; test: Antiproliferative activity against human A375 cells assessed as inhibition of cell proliferation incubated for 72 hrs by conventional ATP quantification method; assay type: functional, cell-based; conditions: A-375, 72 h
[4] = test system: A549; test: (§1) Antiproliferative activity against human A549 cells assessed as inhibition of cell proliferation incubated for 72 hrs by conventional ATP quantification method; assay type: functional, cell-based; conditions: A549, 72 h
[5] = test system: HCT-116; test: (§2) Antiproliferative activity against human HCT116 cells assessed as inhibition of cell proliferation incubated for 72 hrs by conventional ATP quantification method; assay type: functional, cell-based; conditions: HCT-116, 72 h
[6] = test system: T47D; test: Antiproliferative activity against human T47D cells assessed as inhibition of cell proliferation incubated for 72 hrs by conventional ATP quantification method; assay type: functional, cell-based
[7] = test system: SK-OV-3; test: Antiproliferative activity against human SKOV3 cells assessed as inhibition of cell proliferation incubated for 72 hrs by conventional ATP quantification method; assay type: functional, cell-based; conditions: SK-OV-3, 72 h
[8] = test system: KM12; test: Antiproliferative activity against human KM12 cells assessed as inhibition of cell proliferation incubated for 72 hrs by conventional ATP quantification method; assay type: functional, cell-based; conditions: KM12, 72 h
[9] = test system: NCI-H460; test: Antiproliferative activity against human NCI-H460 cells assessed as inhibition of cell proliferation incubated for 72 hrs by conventional ATP quantification method; assay type: functional, cell-based; conditions: NCI-H460, 72 h
[10] = test system: HOP-62; test: Antiproliferative activity against human HOP62 cells assessed as inhibition of cell proliferation incubated for 72 hrs by conventional ATP quantification method; assay type: functional, cell-based; conditions: HOP-62, 72 h
[11] = test system: TK-10; test: Antiproliferative activity against human TK10 cells assessed as inhibition of cell proliferation incubated for 72 hrs by conventional ATP quantification method; assay type: functional, cell-based; conditions: TK-10, 72 h
[12] = test system: OVCAR-3; test: Antiproliferative activity against human OVCAR3 cells assessed as inhibition of cell proliferation incubated for 72 hrs by conventional ATP quantification method; assay type: functional, cell-based; conditions: OVCAR-3, 72 h
[13] = test system: DU-145; test: Antiproliferative activity against human DU145 cells assessed as inhibition of cell proliferation incubated for 72 hrs by conventional ATP quantification method; assay type: functional, cell-based; conditions: DU-145, 72 h
[14] = test system: A549; test: as §1; assay type: functional, cell-based; conditions: A549, 72 h; remark: listed apart in the source
[15] = test system: MDA-MB-231; test: Cytotoxicity against human MDA-MB-231 cells incubated for 72 hrs under hypoxic conditions by MTS assay; assay type: functional, cell-based
[16] = test system: HT-29; test: Cytotoxicity against human HT-29 cells incubated for 72 hrs under hypoxic conditions by MTS assay; assay type: functional, cell-based
[17] = Antiproliferative activity against human KG1 cells assessed as inhibition of cell proliferation incubated for 72 hrs by conventional ATP quantification method; assay type: functional, cell-based; conditions: KG-1, 72 h
[18] = test system: MDA-MB-231; test: Antiproliferative activity against human MDA-MB-231 cells assessed as inhibition of cell proliferation incubated for 72 hrs by conventional ATP quantification method; assay type: functional, cell-based; conditions: MDA-MB-231, 72 h
[19] = Antiproliferative activity against human COLO205 cells assessed as inhibition of cell proliferation incubated for 72 hrs by conventional ATP quantification method; assay type: functional, cell-based; conditions: COLO 205, 72 h
[20] = Antiproliferative activity against human BxPC3 cells assessed as inhibition of cell proliferation incubated for 72 hrs by conventional ATP quantification method; assay type: functional, cell-based; conditions: BXPC-3, 72 h
[21] = test system: HL-60; test: Antiproliferative activity against human HL60 cells assessed as inhibition of cell proliferation incubated for 72 hrs by conventional ATP quantification method; assay type: functional, cell-based; conditions: HL-60, 72 h
[22] = test system: HCT-116; test: as §2; assay type: functional, cell-based; conditions: HCT-116, 72 h; remark: listed apart in the source
[23] = test system: A-375; test: Antiproliferative activity against human A375 cells assessed as inhibition of cell proliferation incubated for 24 hrs by conventional ATP quantification method; assay type: functional, cell-based; conditions: A-375, 24 h
[24] = test system: A-375; test: Antiproliferative activity against human A375 cells assessed as inhibition of cell proliferation incubated for 24 hrs by conventional ATP quantification method relative to untreated control; assay type: functional
[25] = test system: A-375; test: Toxicity against human A375 cells assessed as membrane integrity by measuring LDH release incubated for 24 hrs; assay type: cell-based; conditions: a-375, 24 h
[26] = test system: PANC-1; test: Induction of ROS generation in human PANC1 cells incubated for 1 hr by DCFH-DA dye based assay; assay type: functional, cell-based
[27] = test system: A549; test: Antitumor activity against human A549 cells xenografted in Swiss mouse aggressive tumor model assessed as effect on rate of tumor growth at 1 mg/kg, ip dosed every day for 5 consecutive days during 2 weeks (q1d5 x 2 schedule); assay type: functional, organism-based
[28] = test system: A-375; test: Inhibition of cell invasion of human A375 cells at 10 uM by Boyden chamber assay; assay type: functional, cell-based
[29] = test system: A-375; test: Toxicity against human A375 cells assessed as reduction in cell viability at 10 uM; assay type: cell-based; conditions: a-375, 10 µM
[30] = test system: MDA-MB-231; test: Cytotoxicity against human MDA-MB-231 cells incubated for 72 hrs under normoxic conditions by MTS assay; assay type: functional, cell-based
[31] = test system: HT-29; test: Cytotoxicity against human HT-29 cells incubated for 72 hrs under normoxic conditions by MTS assay; assay type: functional, cell-based
[32] = Initial plasma concentration in mouse at 0.5 mg/kg, iv by tandem HPLC-mass spectrometry; assay type: ADME, organism-based
[33] = AUClast in mouse at 0.5 mg/kg, iv by tandem HPLC-mass spectrometry; assay type: ADME, organism-based; set-up: dose 0.5 mg/kg, route intravenous, time 0 - last; conditions: in vivo
[34] = Half life in mouse at 0.5 mg/kg, iv by tandem HPLC-mass spectrometry; assay type: ADME, organism-based; conditions: in vivo
[35] = Cmax in mouse at 1.5 mg/kg, ip by tandem HPLC-mass spectrometry; assay type: ADME, organism-based; set-up: dose 1.5 mg/kg, route intraperitoneal; conditions: in vivo
[36] = Tmax in mouse at 1.5 mg/kg, ip by tandem HPLC-mass spectrometry; assay type: ADME, organism-based; conditions: in vivo
[37] = AUClast in mouse at 1.5 mg/kg, ip by tandem HPLC-mass spectrometry; assay type: ADME, organism-based; set-up: dose 1.5 mg/kg, route intraperitoneal, time 0 - last; conditions: in vivo
[38] = Half life in mouse at 1.5 mg/kg, ip by tandem HPLC-mass spectrometry; assay type: ADME, organism-based; conditions: in vivo
[39] = Cmax in mouse at 2.5 mg/kg, po by tandem HPLC-mass spectrometry; assay type: ADME, organism-based; set-up: dose 2.5 mg/kg, route oral; conditions: in vivo
[40] = Tmax in mouse at 2.5 mg/kg, po by tandem HPLC-mass spectrometry; assay type: ADME, organism-based; conditions: in vivo
[41] = AUClast in mouse at 2.5 mg/kg, po by tandem HPLC-mass spectrometry; assay type: ADME, organism-based; set-up: dose 2.5 mg/kg, route oral, time 0 - last; conditions: in vivo
[42] = Half life in mouse at 2.5 mg/kg, po by tandem HPLC-mass spectrometry; assay type: ADME, organism-based; conditions: in vivo
[43] = Oral bioavailability in mouse at 2.5 mg/kg by tandem HPLC-mass spectrometry; assay type: ADME, organism-based; conditions: in vivo
[44] = Toxicity in Swiss mouse xenografted with human A549 cells dosed intraperitoneally every day for 5 consecutive days during 2 weeks (q1d5 x 2 schedule); assay type: organism-based; conditions: in vivo, ip
[45] = test system: Mus musculus; test: Toxicity in Swiss mouse xenografted with human A549 cells assessed as induction of hepatic toxicity at 2.5 and 5 mg/kg, ip dosed every day for 5 consecutive days during 2 weeks (q1d5 x 2 schedule); assay type: organism-based; conditions: in vivo, 336 h
[46] = test system: Mus musculus; test: Toxicity in Swiss mouse xenografted with human A549 cells assessed as induction of renal toxicity at 2.5 and 5 mg/kg, ip dosed every day for 5 consecutive days during 2 weeks (q1d5 x 2 schedule); assay type: organism-based; conditions: in vivo, 336 h
[47] = test system: Mus musculus; test: Toxicity in Swiss mouse xenografted with human A549 cells assessed as induction of body weight loss at 2.5 mg/kg, ip dosed every day for 4 consecutive days during 2 weeks (q1d4 x 2 schedule); assay type: organism-based; conditions: in vivo, 336 h
[48] = test system: Mus musculus; test: Toxicity in Swiss mouse xenografted with human A549 cells assessed as induction of icterus at 2.5 mg/kg, ip dosed every day for 4 consecutive days during 2 weeks (q1d4 x 2 schedule); assay type: organism-based; conditions: in vivo, 336 h
[49] = test system: A549; test: Antitumor activity against human A549 cells xenografted in Swiss mouse assessed as reduction of subcutaneous tumor growth at 1 mg/kg, ip dosed every day for 5 consecutive days during 2 weeks (q1d5 x 2 schedule); assay type: functional, organism-based
[50] = test system: A549; test: Antitumor activity against human A549 cells xenografted in Swiss mouse assessed as effect on median tumor volume at 1 mg/kg, ip dosed every day for 5 consecutive days during 2 weeks (q1d5 x 2 schedule); assay type: functional, organism-based

CC(C)[C@H]1CC[C@@](O)(CCl)[C@H]2C(=O)OCC(C(=O)OCc3ccc(-c4ccccc4)o3)=C[C@H]12
IC50 [1]: 1110 nM | IC50 [2]: 2910 nM | IC50 [3]: 4000 nM | IC50 [4]: 1720 nM | IC50 [5]: 610 nM

CNC(=O)C1=C[C@@H]2[C@@H](C(C)C)CC[C@@](O)(CO)[C@H]2C(=O)OC1
IC50 [1]: > 32000 nM | IC50 [2]: > 32000 nM | IC50 [3]: > 32000 nM | IC50 [4]: > 32000 nM | IC50 [5]: > 32000 nM

CC(C)[C@H]1CC[C@@](O)(CO)[C@H]2C(=O)OCC(C(=O)O)=C[C@H]12
IC50 [1]: > 32000 nM | IC50 [2]: > 32000 nM | IC50 [3]: > 32000 nM | IC50 [4]: > 32000 nM | IC50 [5]: > 32000 nM

CC(C)[C@H]1CC[C@@]2(CO2)[C@H]2C(=O)OCC(C(=O)OCc3ccc(-c4ccccc4)o3)=C[C@H]12
IC50 [1]: 370 nM | IC50 [2]: 960 nM | IC50 [3]: 1310 nM | IC50 [4]: 350 nM | IC50 [5]: 220 nM

COc1cccc2c1C(=O)c1c(O)c3c(c(O)c1C2=O)C[C@@](O)(C(=O)CO)C[C@@H]3O[C@H]1C[C@H](N)[C@H](O)[C@H](C)O1 [DOXORUBICIN]
IC50 [6]: 20 nM | IC50 [7]: 20 nM | IC50 [8]: 20 nM | IC50 [9]: 20 nM | IC50 [10]: 20 nM | IC50 [11]: 20 nM | IC50 [12]: 20 nM | IC50 [2]: 150 nM | IC50 [13]: 20 nM | IC50 [14]: 20 nM | Activity [15]: inactive | Activity [16]: inactive | IC50 [3]: 10 nM | IC50 [4]: 30 nM

CC(C)[C@H]1CC[C@@]2(CO2)[C@H]2C(=O)OCC(C(=O)O)=C[C@H]12
IC50 [17]: 400 nM | IC50 [6]: 210 nM | IC50 [7]: 340 nM | IC50 [8]: 410 nM | IC50 [1]: 302 nM | IC50 [18]: 450 nM | IC50 [9]: 490 nM | IC50 [10]: 510 nM | IC50 [19]: 630 nM | IC50 [11]: 660 nM | IC50 [12]: 690 nM | IC50 [20]: 760 nM | IC50 [21]: 760 nM | IC50 [2]: 509 nM | IC50 [13]: 890 nM | IC50 [22]: 930 nM | IC50 [14]: 990 nM | IC50 [23]: 1260 nM | inhibition (INH) [24]: 90% | Activity [25]: 8% | Activity [26]: inactive | Activity [27]: inactive | inhibition [28]: inactive | Activity [29]: 81% | Activity [15]: Active | Activity [30]: Active | Activity [31]: Active | Activity [16]: Active | C0 [32]: 180 ng/mL | AUC(0-t) [33]: 10.4 ng·h/mL | half-life [34]: 2.4 min | Cmax [35]: 249 ng/mL | Tmax [36]: 15 min | AUC(0-t) [37]: 78.7 ng·h/mL | half-life [38]: 6 min | Cmax [39]: 17 ng/mL | Tmax [40]: 15 min | AUC(0-t) [41]: 8.6 ng·h/mL | half-life [42]: 30 min | bioavailability [43]: 17% | MTD at 336 h [44]: 1 mg/kg | Activity [45]: Toxic | Activity [46]: Toxic | Activity [47]: > 15% | Activity [48]: Toxic | Activity [49]: inactive | Activity [50]: inactive | IC50 [3]: 1340 nM | IC50 [4]: 458 nM | IC50 [5]: 210 nM

CC(C)[C@H]1CC[C@@]2(CO2)[C@H]2C(=O)OCC(C(=O)OCc3ccc(-c4ccc([N+](=O)[O-])cc4)o3)=C[C@H]12
IC50 [1]: 1190 nM | IC50 [2]: 3600 nM | IC50 [3]: 1640 nM | IC50 [4]: 450 nM | IC50 [5]: 620 nM
